In patent US20190276481A1, “Liver Prodrugs of Mitochondrial Proton Ionophores” (NEUROVIVE PHARMACEUTICAL AB, priority 2016, published 2019):

What was measured:
[1] = tested on: HepG2 cells (hepatic) vs platelets (extra-hepatic); experiment: In vitro uncoupling in HepG2 cells (hepatic) vs platelets (extra-hepatic); type: cell-based; conditions: high maximal uncoupling at low concentrations in HepG2 cells; FIGS. 7-12
Experimental: (§1) For respiration measurements in HepG2 cells and platelets, cells are suspended in a mitochondrial respiration medium MiR05 at 37° C. in a high-resolution oxygraph (Oxygraph-2k Oroboros Instruments, Innsbruck, Austria). […] To evaluate the contribution of respiration independent of ADP phosphorylation, oligomycin (1 μg/ml, ATP-synthase inhibitor) is sequentially added inducing LEAK respiration state (a respiratory state where oxygen consumption is dependent on the back-flux of protons across the mitochondrial membrane). Drug candidates and known protonophores are carefully titrated to induce maximal uncoupled respiration/maximal rate of the ETS (electron transport system) at endogenous substrate supply and continued until a decrease or at least no further increase of uncoupled respiration is observed. Rotenone (2 μM, complex I [CI] inhibitor) and antimycin-A (1 μg/ml, complex III [CIII] inhibitor) are then added to inhibit the ETS, thus providing the residual, non-mitochondrial oxygen consumption, which all values were corrected for.
(§2) The potency of mitochondrial uncoupling with prodrug metabolism be tested as follows: • a) HepG2 cells (to simulate uncoupling with liver cell metabolism) • b) Platelets (to simulate uncoupling in blood)
It is advantageous to have an increased level of uncoupling in hepatic tissue as compared to extra-hepatic tissue. To test for this, compounds were tested in an in vitro uncoupling assay (see Assays for evaluating mitochondrial uncoupling in intact liver cells and platelets in general methods) in HepG2 cells (hepatic) vs platelets (extra-hepatic).

[2] = tested on: isolated rat liver mitochondria; experiment: Uncoupling potential in isolated mitochondria (free mitochondrial uncoupling, oxygraph respiration); type: biochemical; conditions: fixed concentrations, vs DMSO control, FIGS. 1, 2, 4-6
Experimental: The potency of mitochondrial uncoupling without prodrug metabolism may be tested as follows:
Isolated rat liver mitochondria are prepared according to Hansson et al (Hansson et al (Brain Res. 2003 Jan. 17; 960(1-2):99-111.). Respiration is measured at a constant temperature of 37° C. in a high-resolution oxygraph (Oxygraph-2k Oroboros Instruments, Innsbruck, Austria) in 2 ml glass chambers with stirrer speed 750 rpm. Data is recorded with DatLab software (Oroboros Instruments, Innsbruck, Austria) with sampling rate set to 2 s at an oxygen concentration in the range of 210-50 μM O2. If necessary, reoxygenation is performed by partially raising the chamber stopper for a brief air equilibration. Instrumental background oxygen flux is measured in a separate set of experiments and automatically corrected for in the ensuing experiments according to the manufacturer's instructions. To measure respiration of isolated mitochondria, samples are suspended in a mitochondrial respiration medium (MiR05) containing sucrose 110 mM, HEPES 20 mM, taurine 20 mM, K-lactobionate 60 mM, MgCl2 3 mM, KH2PO4 10 mM, EGTA 0.5 mM, BSA 1 g/l, pH 7.1. After reaching stabilized respiration in the presence of substrates (malate (5 mM), glutamate (5 mM), pyruvate (5 mM) and succinate (10 mM)), state 3 respiration is induced by supplementation with ADP (1 mM) followed by addition of oligomycin (1 μg/ml, ATP-synthase inhibitor) causing state 4O. State 4O is a respiratory state dependent on the back-flux of protons across the mitochondrial membrane due to inhibition of the ATP-synthase and in the presence of saturating substrate concentrations and ADP. Drug candidates and their respective payloads of known protonophores are given at fixed concentrations to induce uncoupled respiration. Rotenone (2 μM, complex I [CI] inhibitor), antimycin-A (1 μg/ml, complex III [CIII] inhibitor) and sodium azide (10 mM) are then added to inhibit the ETS providing the residual, non-mitochondrial oxygen consumption which all respiratory values are corrected for.

Caco-2 cell monolayers = experiment: Caco-2 permeability assay; type: in vitro ADME
Experimental: (§3) The permeability coefficient (Papp) is calculated from the following equation:
(§4) Where dQ/dt is the amount of compound in basal (A-B) or apical (B-A) compartment as a function of time (nmol/s). C0 is the initial concentration in the donor (apical or basal) compartment (Mean of T=0) (nmol/mL) and A is the area of the transwell (cm^2).
(§5) The efflux ratio is then calculated as: […]
(§6) Cell permeability may be tested as follows: The test compound is dissolved to 10 mM in DMSO and then diluted further in buffer to produce a final 10 μM dosing concentration. The fluorescence marker lucifer yellow is also included to monitor membrane integrity. Test compound is then applied to the apical (A) surface of Caco-2 cell monolayers and compound permeation into the basolateral (B) compartment is measured. This is performed in the reverse direction (basolateral to apical) to investigate active transport (efflux). LC-MS/MS is used to quantify levels of both the test and standard control compounds (such as Propanolol and Acebutolol).

[3] = Caco-2 permeability assay; type: in vitro ADME; conditions: human
Experimental: as §3, §4, §5, §6

[4] = Relative liver exposure vs extra-hepatic organs: salicylanilide levels after oral dosing; type: in vivo; conditions: CD-1 mice
Experimental: For example, mice or rats are dosed with 1 or 3 mg/kg of the compound of the invention i.v. or 1, 5 or 10 mg/kg of the compound of the invention p.o. Blood samples are taken at 5 min, 15 min, 1 h, 4 h and 24 h intervals, and the concentration of the compound of the invention in the sample is determined via LCMS-MS. The time-course of plasma or whole blood concentrations can then be used to derive key parameters such as the area under the plasma or blood concentration-time curve (AUC—which is directly proportional to the total amount of unchanged drug that reaches the systemic circulation), the maximum (peak) plasma or blood drug concentration, the time at which maximum plasma or blood drug concentration occurs (peak time), additional factors which are used in the accurate determination of bioavailability include: the compound's terminal half-life, total body clearance, steady-state volume of distribution and F %.
As it is advantageous to have an increased ratio of liver uncoupling versus extra hepatic uncoupling, 3 mg/kg salicylanilide or 10 mg/kg compound 14 or 10 mg/kg compound 23 (which releases salicylanilide) were dosed orally to CD-1 mice and levels of salicylanilide were measured in blood, muscle and liver samples before and after dosing (see general methods). The ratio of liver vs extra-hepatic salicylanilide was then assessed, with a high ratio desirable, as this is anticipated to lead to reduced off-target uncoupling and toxicity.

HepG2 cells = experiment: Mitochondrial uncoupling assay in intact HepG2 liver cells; type: cell-based; conditions: FIG. 3
Experimental: as §1, §2

[5] = Hsaio et al., 2005; cited from earlier work

SMILES: CC(C)OC(=O)[C@H](C)NP(=O)(N[C@@H](C)C(=O)OC(C)C)OCOc1ccc(Cl)cc1C(=O)Nc1ccc([N+](=O)[O-])cc1Cl [Compound 6]
- selectivity of uncoupling, HepG2 cells vs platelets [1]: selective uncoupling in HepG2 cells as compared to platelets
- uncoupling in isolated mitochondria (without prodrug metabolism) [2]: reduced, little or no uncoupling

SMILES: O=C(Nc1ccccc1)c1ccccc1O [Salicylanilide, 2-Hydroxy-N-phenylbenzamide]
- Caco-2 efflux ratio compared to DNP (in words) (Caco-2 cell monolayers): reduced efflux ratio
- Caco-2 permeability compared to DNP (in words) (Caco-2 cell monolayers): increased permeability
- efflux ratio [3]: 0.8
- Papp A→B ([3]; apical to basolateral): 39.5 ×10⁻⁶ cm/s
- Papp B→A ([3]; basolateral to apical): 33 ×10⁻⁶ cm/s
- ratio of liver to extra-hepatic exposure (in words) [4]: desirable ratios of liver to extra-hepatic exposure
- maximal uncoupling effect compared to DNP (HepG2 cells): lesser maximal uncoupling effect
- uncoupling potency compared to DNP (HepG2 cells): more potent compared to DNP

SMILES: O=[N+]([O-])c1ccc(O)c([N+](=O)[O-])c1 [DNP, 2,4 dinitrophenol]
- efflux ratio at 10 µM [3]: 1.1
- Papp A→B at 10 μM ([3]; apical to basolateral): 24 ×10⁻⁶ cm/s
- Papp B→A at 10 μM ([3]; basolateral to apical): 27 ×10⁻⁶ cm/s
- acute administration that can be lethal [5]: 20-50 mg/kg body weight
- uncoupling in isolated mitochondria (without prodrug metabolism) [2]: potent uncoupling

SMILES: C[C@H](NP(=O)(N[C@@H](C)C(=O)OCC(C)(C)C)OCOc1ccccc1C(=O)Nc1ccccc1)C(=O)OCC(C)(C)C [Compound 23]
- selectivity of uncoupling, HepG2 cells vs platelets [1]: selective uncoupling in HepG2 cells as compared to platelets
- ratio of liver to extra-hepatic exposure (in words) [4]: desirable ratios of liver to extra-hepatic exposure
- uncoupling in isolated mitochondria (without prodrug metabolism) [2]: reduced, little or no uncoupling

SMILES: CC(C)OC(=O)[C@H](Cc1ccccc1)NP(=O)(N[C@@H](Cc1ccccc1)C(=O)OC(C)C)OCOc1ccccc1C(=O)Nc1ccccc1 [Compound 14]
- selectivity of uncoupling, HepG2 cells vs platelets [1]: selective uncoupling in HepG2 cells as compared to platelets
- ratio of liver to extra-hepatic exposure (in words) [4]: desirable ratios of liver to extra-hepatic exposure
- Salicylanilide in blood after 1 h ([4]; 3 mg/kg salicylanilide or 10 mg/kg compound 14 or 23): BQL
- uncoupling in isolated mitochondria (without prodrug metabolism) [2]: reduced, little or no uncoupling

SMILES: COP(=O)(N[C@@H](C)C(=O)OC(C)C)OCOc1ccc(Cl)cc1C(=O)Nc1ccc([N+](=O)[O-])cc1Cl (stereo partly shown) [Compound 18]
- selectivity of uncoupling, HepG2 cells vs platelets [1]: selective uncoupling in HepG2 cells as compared to platelets
- uncoupling in isolated mitochondria (without prodrug metabolism) [2]: reduced, little or no uncoupling

SMILES: COP(=O)(N[C@@H](C)C(=O)OC(C)C)OCOc1ccc([N+](=O)[O-])cc1[N+](=O)[O-] (stereo partly shown) [Compound 1]
- uncoupling in isolated mitochondria (without prodrug metabolism) [2]: reduced, little or no uncoupling

SMILES: C[C@H](NP(=O)(N[C@@H](C)C(=O)OCC(C)(C)C)OCOc1ccc([N+](=O)[O-])cc1)C(=O)OCC(C)(C)C [Compound 9]
- selectivity of uncoupling, HepG2 cells vs platelets [1]: selective uncoupling in HepG2 cells as compared to platelets
- uncoupling in isolated mitochondria (without prodrug metabolism) [2]: reduced, little or no uncoupling

SMILES: CC(C)OC(=O)[C@H](C)NP(=O)(N[C@@H](C)C(=O)OC(C)C)OCOc1ccc([N+](=O)[O-])cc1 [Compound 4]
- uncoupling in isolated mitochondria (without prodrug metabolism) [2]: reduced, little or no uncoupling

SMILES: CC(C)OC(=O)[C@H](C)NP(=O)(N[C@@H](C)C(=O)OC(C)C)OCOc1ccc([N+](=O)[O-])cc1[N+](=O)[O-] [Compound 2]
- uncoupling in isolated mitochondria (without prodrug metabolism) [2]: reduced, little or no uncoupling

SMILES: CC(C)OC(=O)[C@H](Cc1ccccc1)NP(=O)(N[C@@H](Cc1ccccc1)C(=O)OC(C)C)OCOc1ccc([N+](=O)[O-])cc1[N+](=O)[O-] [Compound 11]
- selectivity of uncoupling, HepG2 cells vs platelets [1]: selective uncoupling in HepG2 cells as compared to platelets
- uncoupling in isolated mitochondria (without prodrug metabolism) [2]: reduced, little or no uncoupling
